PubChem BioAssay (NCI)
Where “and” joins values, the source holds several entries; their conditions need not be identical. Equal values may be shown once.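 Five concentrations, 48 hours, 96-well plates. GI50 marks 50% less growth. TGI is the concentration that stops growth completely.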

system: K-562 leukemia; assay: NCI anticancer screen, dose series, 48 h

SMILES | GI50 | TGI
O=C(O)c1cccc(COc2ccc([N+](=O)[O-])cc2Cl)c1 | 37.2 µM | > 100 µM
CCC(C)(O)c1cnc(CC(C)C)c(=O)n1O (centres undefined) |  | 47.8 µM
CCC1CN2CCc3cc(OC)c(OC)cc3C2CC1CC1c2cc(OC)c(OC)cc2CCN1C(=O)C1CCCN1 (centres undefined) |  | 51.4 µM
CC(C(=O)c1ccc(Cl)cc1)/C(=N/NC(=O)NN)C(=O)Nc1cccc(C(F)(F)F)c1 (centres undefined) |  | > 100 µM
COc1cc2c(/C=N\N=C(N)N)c[nH]c2cc1C | 17.1 µM | 30.8 µM
CCOP(=O)(OCC)C(C(=O)OC)C(=O)C(=O)Nc1ccc(Cl)cc1Cl (centres undefined) |  | > 100 µM
C=CC(=O)N1CN(C(=O)C=C)CN(C(=O)C=C)C1 | 3.01 µM | 9.83 µM
CC(C)(C)c1ccc2c(c1)S(=O)(=O)Nc1ccc(Cl)cc1NS(=O)(=O)c1cc(C(C)(C)C)ccc1OCCOCCOCCO2 |  | > 100 µM
O=C(/C(=C\c1c(-c2ccccc2)[nH]c2ccccc12)S(=O)(=O)c1ccccc1)c1ccccc1 | 6.53 µM | > 100 µM
COc1ccc(C(=O)c2cc(OC)c(OC)c(OC)c2)cc1OC |  | > 100 µM
O=C1c2ccccc2-c2c1c1ccccc1c(=O)n2CCN1CCNCC1 | 0.902 µM | 5.05 µM
COc1c(C)n(CCO)ccc1=O |  | > 100 µM
Nc1c(-c2ccccc2-c2c(N)[n+]([O-])c3ccccc3[n+]2[O-])[n+]([O-])c2ccccc2[n+]1[O-] |  | > 71.8 µM
CN(C)CCNCCN |  | > 100 µM
O=C(c1ccco1)c1c(C(F)(F)F)n([O-])c2ccc(C(F)(F)F)cc2[n+]1=O | 0.287 µM | 0.765 µM
CCN1c2ccccc2-c2c3c1cc(C)cc3c1ccccc1[n+]2CC |  | 2.12 µM
CC(=O)N1CCN(c2ccc(OCC3COC(Cn4ccnc4)(c4ccc(Cl)cc4Cl)O3)cc2)CC1 (centres undefined) |  | > 100 µM
O=C(Cc1nc2c3c(ccc2[nH]c1=O)C(=O)c1ccccc1C3=O)C(=O)Nc1ccccc1[N+](=O)[O-] |  | 37 µM
Nc1nc(-c2ccc(Cl)c([N+](=O)[O-])c2)cs1 |  | > 100 µM
COc1cc(/C=C\c2cc(OC)c(OC)c(OC)c2)cc(N/C=C\C(=O)c2c[nH]c3ccccc23)c1OC | 1.54 µM | > 100 µM
Cn1c(=O)c2c(nc(C(=N)SCC(=O)O)n2C)n(C)c1=O |  | > 100 µM
COc1ccc(-c2nn(-c3cccc(Cl)c3)cc2-c2cc(-c3ccccc3)[nH]c(=O)c2C#N)cc1 | 9.22 µM | > 50 µM
CC(C)(C)[Si](C)(C)OC1[C@@H](CNC(=O)NC(=O)CCl)O[C@@H](n2cnc3c(N)ncnc32)[C@H]1O[Si](C)(C)C(C)(C)C (some centres undefined) | 1.23 µM | 3.41 µM
NC(=O)C(=O)CC(=O)c1ccccc1NC1=CC(=O)C(=O)c2ccccc21 |  | > 100 µM
CCCC(=O)C1=C(O)C(Cc2c(O)c(C)c(O)c(C(=O)CCC)c2O)=C(O)C(C)(C)C1=O |  | 48 µM
Cc1ccccc1C1=[N+]([O-])c2ccc(Cl)cc2C1=O |  | 24.1 µM
c1coc(-c2c3ccc(=[N+]4CCCCC4)cc-3oc3cc(N4CCCCC4)ccc23)c1 | 0.0541 µM | > 100 µM
Cc1[nH]c2ccccc2c1C1Cc2ccccc2N1C(=O)C#Cc1ccc([N+](=O)[O-])cc1 (centres undefined) |  | > 100 µM
CCC/C=C/C=C/C1CC(O)C(O)C(=O)C1CO (centres undefined) |  | > 100 µM
Cn1c(=O)nc2n(-c3cc(C(F)(F)F)cc(C(F)(F)F)c3)c3ccccc3nc-2c1=O |  | > 100 µM

system: NCI-H23 lung; assay: NCI anticancer screen, dose series, 48 h

SMILES | GI50 | TGI
COC(=O)C1=COC(C)C2CN3CCc4c([nH]c5ccccc45)C3CC12 (centres undefined) | 33.8 µM and > 100 µM | > 100 µM
CCC(C)(O)c1cnc(CC(C)C)c(=O)n1O (centres undefined) |  | > 100 µM
CCC1CN2CCc3cc(OC)c(OC)cc3C2CC1CC1c2cc(OC)c(OC)cc2CCN1C(=O)C1CCCN1 (centres undefined) |  | > 100 µM
CC(C(=O)c1ccc(Cl)cc1)/C(=N/NC(=O)NN)C(=O)Nc1cccc(C(F)(F)F)c1 (centres undefined) |  | > 100 µM
COc1cc2c(/C=N\N=C(N)N)c[nH]c2cc1C | 18.7 µM | 53.5 µM
CCOP(=O)(OCC)C(C(=O)OC)C(=O)C(=O)Nc1ccc(Cl)cc1Cl (centres undefined) |  | > 100 µM
Cn1cc(-c2csc(-c3cn(CCCCN4CCCCC4)c4ccccc34)n2)c2cccnc21 | 1.66 µM | 3.21 µM
C=CC(=O)N1CN(C(=O)C=C)CN(C(=O)C=C)C1 | 2.77 µM | 9.15 µM
CC(C)(C)c1ccc2c(c1)S(=O)(=O)Nc1ccc(Cl)cc1NS(=O)(=O)c1cc(C(C)(C)C)ccc1OCCOCCOCCO2 |  | > 100 µM
O=C(/C(=C\c1c(-c2ccccc2)[nH]c2ccccc12)S(=O)(=O)c1ccccc1)c1ccccc1 | 9.57 µM | > 100 µM
COc1ccc(C(=O)c2cc(OC)c(OC)c(OC)c2)cc1OC |  | > 100 µM
Nc1c(-c2ccccc2-c2c(N)[n+]([O-])c3ccccc3[n+]2[O-])[n+]([O-])c2ccccc2[n+]1[O-] |  | > 100 µM
CN(C)CCNCCN |  | > 100 µM
COC(=O)c1cc2c(o1)-c1nccc3c1c(nc1ccccc13)C2=O | 5.66 µM | 26.7 µM
O=C(c1ccco1)c1c(C(F)(F)F)n([O-])c2ccc(C(F)(F)F)cc2[n+]1=O | 0.853 µM | 2.3 µM
CCN1c2ccccc2-c2c3c1cc(C)cc3c1ccccc1[n+]2CC |  | 4.08 µM

SMILES | GI50 | TGI
O=C(Cc1nc2c3c(ccc2[nH]c1=O)C(=O)c1ccccc1C3=O)C(=O)Nc1ccccc1[N+](=O)[O-] |  | 35.4 µM
CC1=C(C#N)C(=O)CC(c2ccc(Cl)cc2)N(C)N1 (centres undefined) |  | > 100 µM
Nc1nc(-c2ccc(Cl)c([N+](=O)[O-])c2)cs1 |  | > 100 µM
CC1(C)CN=C(NN=C(/C=C/c2ccc(C(F)(F)F)cc2)/C=C/c2ccc(C(F)(F)F)cc2)NC1 | 1.56 µM | 3.23 µM
COc1cc(/C=C\c2cc(OC)c(OC)c(OC)c2)cc(N/C=C\C(=O)c2c[nH]c3ccccc23)c1OC | 3.75 µM | 16.2 µM
Cn1c(=O)c2c(nc(C(=N)SCC(=O)O)n2C)n(C)c1=O |  | > 100 µM
COc1ccc(-c2nn(-c3cccc(Cl)c3)cc2-c2cc(-c3ccccc3)[nH]c(=O)c2C#N)cc1 | 2.46 µM | 13.6 µM
CC(C)(C)[Si](C)(C)OC1[C@@H](CNC(=O)NC(=O)CCl)O[C@@H](n2cnc3c(N)ncnc32)[C@H]1O[Si](C)(C)C(C)(C)C (some centres undefined) | 0.955 µM | 2.08 µM
NC(=O)C(=O)CC(=O)c1ccccc1NC1=CC(=O)C(=O)c2ccccc21 |  | > 100 µM
CC1CC(O)C(=O)C(O[C@@H]2C[C@@H]3CC[C@@H]4[C@H](CC[C@]5(C)C(C6=CC(=O)OC6)CC[C@]45O)[C@@]3(C=O)C[C@H]2O)O1 (some centres undefined) |  | 0.0565 µM
CCCC(=O)C1=C(O)C(Cc2c(O)c(C)c(O)c(C(=O)CCC)c2O)=C(O)C(C)(C)C1=O |  | > 50 µM
Cc1ccccc1C1=[N+]([O-])c2ccc(Cl)cc2C1=O |  | 32.2 µM
Cc1[nH]c2ccccc2c1C1Cc2ccccc2N1C(=O)C#Cc1ccc([N+](=O)[O-])cc1 (centres undefined) |  | > 100 µM
CCC/C=C/C=C/C1CC(O)C(O)C(=O)C1CO (centres undefined) |  | > 100 µM
Cn1c(=O)nc2n(-c3cc(C(F)(F)F)cc(C(F)(F)F)c3)c3ccccc3nc-2c1=O |  | > 100 µM

system: UACC-62 melanoma; assay: NCI anticancer screen, dose series, 48 h

SMILES | GI50 | TGI
O=C(O)c1cccc(COc2ccc([N+](=O)[O-])cc2Cl)c1 | > 100 µM | > 100 µM
COC(=O)C1=COC(C)C2CN3CCc4c([nH]c5ccccc45)C3CC12 (centres undefined) | 24.4 µM and > 100 µM | > 100 µM
CCC(C)(O)c1cnc(CC(C)C)c(=O)n1O (centres undefined) |  | > 100 µM
CC(C(=O)c1ccc(Cl)cc1)/C(=N/NC(=O)NN)C(=O)Nc1cccc(C(F)(F)F)c1 (centres undefined) |  | > 100 µM
COc1cc2c(/C=N\N=C(N)N)c[nH]c2cc1C | 16 µM | 33 µM
CCOP(=O)(OCC)C(C(=O)OC)C(=O)C(=O)Nc1ccc(Cl)cc1Cl (centres undefined) |  | > 100 µM
Cn1cc(-c2csc(-c3cn(CCCCN4CCCCC4)c4ccccc34)n2)c2cccnc21 | 1.79 µM | 3.27 µM
C=CC(=O)N1CN(C(=O)C=C)CN(C(=O)C=C)C1 | 3.49 µM | 12 µM
CC(C)(C)c1ccc2c(c1)S(=O)(=O)Nc1ccc(Cl)cc1NS(=O)(=O)c1cc(C(C)(C)C)ccc1OCCOCCOCCO2 |  | > 100 µM
O=C(/C(=C\c1c(-c2ccccc2)[nH]c2ccccc12)S(=O)(=O)c1ccccc1)c1ccccc1 | 8.95 µM | > 100 µM
COc1ccc(C(=O)c2cc(OC)c(OC)c(OC)c2)cc1OC |  | > 100 µM
O=C1c2ccccc2-c2c1c1ccccc1c(=O)n2CCN1CCNCC1 | 1.37 µM | 3.15 µM
COc1c(C)n(CCO)ccc1=O |  | > 100 µM
Nc1c(-c2ccccc2-c2c(N)[n+]([O-])c3ccccc3[n+]2[O-])[n+]([O-])c2ccccc2[n+]1[O-] |  | 26.5 µM
CN(C)CCNCCN |  | > 100 µM
